According to publication PMC9150124, “Design of a Potent, Selective, and Brain-Penetrant Inhibitor of Wnt-Deactivating Enzyme Notum by Optimization of a Crystallographic Fragment Hit” (Journal of Medicinal Chemistry, 2022):

Key:
Test in all cases: SelectScreen kinase profiling, SSBK ZLyte SP Technology
Assay type in all cases: biochemical
[1] = biological target: kinase named in conditions (Homo sapiens, UniProt P04626); conditions: ERBB2 (HER2), 10 μM
Procedure: (§1) Kinase selectivity screening was performed by Thermo Fisher Scientific (Paisley, U.K.) in their SelectScreen Biochemical Kinase Profiling Service. Assay information and data are presented in the Supporting Information.
(§2) Kinase selectivity screening was performed by ThermoFisher Scientific (Paisley, U.K.) in their SelectScreenTM
(§3) Biochemical Kinase Profiling service .

[2] = biological target: kinase named in conditions (Homo sapiens, UniProt P22607, V555M); conditions: FGFR3 V555M, 10 μM
Procedure: as §1, §2, §3

[3] = biological target: kinase named in conditions (Homo sapiens, UniProt Q9UK32); conditions: RPS6KA6 (RSK4), 10 μM
Procedure: as §1, §2, §3

[4] = biological target: kinase named in conditions (Homo sapiens, UniProt O95819); conditions: MAP4K4 (HGK), 10 μM
Procedure: as §1, §2, §3

[5] = biological target: kinase named in conditions (Homo sapiens, UniProt P00533, T790M); conditions: EGFR (ErbB1) T790M, 10 μM
Procedure: as §1, §2, §3

[6] = biological target: kinase named in conditions (Homo sapiens, UniProt P00533, C797S/L858R/T790M); conditions: EGFR (ErbB1) T790M C797S L858R, 10 μM
Procedure: as §1, §2, §3

[7] = biological target: kinase named in conditions (Homo sapiens, UniProt Q9P1W9); conditions: PIM2, 10 μM
Procedure: as §1, §2, §3

[8] = biological target: kinase named in conditions (Homo sapiens, UniProt Q9H0K1); conditions: SNF1LK2, 10 μM
Procedure: as §1, §2, §3

[9] = biological target: kinase named in conditions (Homo sapiens, UniProt Q13554); conditions: CAMK2B (CaMKII beta), 10 μM
Procedure: as §1, §2, §3

[10] = biological target: kinase named in conditions (Homo sapiens, UniProt Q05513); conditions: PRKCZ (PKC zeta), 10 μM
Procedure: as §1, §2, §3

[11] = biological target: kinase named in conditions (Homo sapiens, UniProt P36507); conditions: MAP2K2 (MEK2), 10 μM
Procedure: as §1, §2, §3

[12] = biological target: kinase named in conditions (Homo sapiens, UniProt P29376); conditions: LTK (TYK1), 10 μM
Procedure: as §1, §2, §3

[13] = biological target: kinase named in conditions (Homo sapiens, UniProt P53779); conditions: MAPK10 (JNK3), 10 μM
Procedure: as §1, §2, §3

[14] = biological target: kinase named in conditions (Homo sapiens, UniProt P04629); conditions: NTRK1 (TRKA), 10 μM
kinase named in conditions (Homo sapiens, UniProt P04629), sequence (P04629 33-796): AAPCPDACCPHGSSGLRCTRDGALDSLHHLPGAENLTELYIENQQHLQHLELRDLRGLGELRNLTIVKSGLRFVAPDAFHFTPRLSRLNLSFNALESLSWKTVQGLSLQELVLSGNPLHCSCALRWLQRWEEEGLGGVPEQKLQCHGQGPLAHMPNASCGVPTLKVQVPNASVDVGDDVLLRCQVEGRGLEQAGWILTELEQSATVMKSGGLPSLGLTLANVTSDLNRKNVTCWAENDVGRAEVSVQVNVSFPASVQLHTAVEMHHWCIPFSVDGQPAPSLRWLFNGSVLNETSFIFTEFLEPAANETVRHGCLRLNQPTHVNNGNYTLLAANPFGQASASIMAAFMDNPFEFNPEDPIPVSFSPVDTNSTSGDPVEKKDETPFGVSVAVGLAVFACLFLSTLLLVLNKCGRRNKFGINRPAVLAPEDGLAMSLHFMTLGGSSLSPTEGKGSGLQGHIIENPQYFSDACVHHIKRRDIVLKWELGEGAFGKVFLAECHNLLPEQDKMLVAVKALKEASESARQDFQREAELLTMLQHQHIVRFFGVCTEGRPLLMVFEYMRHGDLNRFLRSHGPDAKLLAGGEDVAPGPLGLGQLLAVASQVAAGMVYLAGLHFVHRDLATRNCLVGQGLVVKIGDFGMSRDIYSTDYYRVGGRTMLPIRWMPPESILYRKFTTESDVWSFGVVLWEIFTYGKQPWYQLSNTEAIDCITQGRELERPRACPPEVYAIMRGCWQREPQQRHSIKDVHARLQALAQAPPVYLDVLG
Procedure: as §1, §2, §3

[15] = biological target: kinase named in conditions (Homo sapiens, UniProt Q15139); conditions: PRKD1 (PKC mu), 10 μM
kinase named in conditions (Homo sapiens, UniProt Q15139), sequence (Q15139 whole entry): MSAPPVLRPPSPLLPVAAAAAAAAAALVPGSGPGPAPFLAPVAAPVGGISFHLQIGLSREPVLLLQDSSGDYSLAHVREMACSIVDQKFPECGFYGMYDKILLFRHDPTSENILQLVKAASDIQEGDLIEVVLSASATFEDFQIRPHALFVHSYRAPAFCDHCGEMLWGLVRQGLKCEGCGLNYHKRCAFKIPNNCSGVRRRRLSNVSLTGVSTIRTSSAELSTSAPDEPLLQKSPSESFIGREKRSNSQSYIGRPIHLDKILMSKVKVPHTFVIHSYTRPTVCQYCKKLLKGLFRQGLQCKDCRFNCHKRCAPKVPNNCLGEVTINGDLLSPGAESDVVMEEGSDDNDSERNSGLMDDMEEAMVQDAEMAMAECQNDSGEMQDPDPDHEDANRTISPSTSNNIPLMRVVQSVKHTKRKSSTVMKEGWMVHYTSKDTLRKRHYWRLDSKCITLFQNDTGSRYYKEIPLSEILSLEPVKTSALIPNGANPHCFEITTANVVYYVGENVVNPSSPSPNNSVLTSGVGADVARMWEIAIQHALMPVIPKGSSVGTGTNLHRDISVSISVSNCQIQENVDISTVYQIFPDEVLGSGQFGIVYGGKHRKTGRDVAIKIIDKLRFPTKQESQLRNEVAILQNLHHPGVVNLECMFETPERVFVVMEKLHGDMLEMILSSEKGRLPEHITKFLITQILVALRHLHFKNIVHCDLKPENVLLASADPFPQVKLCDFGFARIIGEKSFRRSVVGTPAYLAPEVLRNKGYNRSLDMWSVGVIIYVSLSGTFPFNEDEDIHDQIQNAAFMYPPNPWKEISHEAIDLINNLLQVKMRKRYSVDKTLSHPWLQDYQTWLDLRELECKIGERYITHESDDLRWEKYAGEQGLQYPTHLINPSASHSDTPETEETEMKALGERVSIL
Procedure: as §1, §2, §3

[16] = biological target: kinase named in conditions (Homo sapiens, UniProt Q06418); conditions: TYRO3 (RSE), 10 μM
Procedure: as §1, §2, §3

[17] = biological target: kinase named in conditions (Homo sapiens, UniProt P45984); conditions: MAPK9 (JNK2), 10 μM
Procedure: as §1, §2, §3

[18] = biological target: kinase named in conditions (Homo sapiens, UniProt P22607, K650E); conditions: FGFR3 K650E, 10 μM
Procedure: as §1, §2, §3

[19] = biological target: kinase named in conditions (Homo sapiens, UniProt Q16288); conditions: NTRK3 (TRKC), 10 μM
Procedure: as §1, §2, §3

[20] = biological target: kinase named in conditions (Homo sapiens, UniProt Q86Z02); conditions: HIPK1 (Myak), 10 μM
Procedure: as §1, §2, §3

[21] = biological target: kinase named in conditions (Homo sapiens, UniProt P43403); conditions: ZAP70, 10 μM
Procedure: as §1, §2, §3

[22] = biological target: kinase named in conditions (Homo sapiens, UniProt Q52WX2); conditions: SBK1, 10 μM
Procedure: as §1, §2, §3

[23] = biological target: kinase named in conditions (Homo sapiens, UniProt Q96GD4); conditions: AURKB (Aurora B), 10 μM
Procedure: as §1, §2, §3

[24] = biological target: kinase named in conditions (Homo sapiens, UniProt O14757); conditions: CHEK1 (CHK1), 10 μM
Procedure: as §1, §2, §3

[25] = biological target: kinase named in conditions (Homo sapiens, UniProt Q9Y243); conditions: AKT3 (PKB gamma), 10 μM
kinase named in conditions (Homo sapiens, UniProt Q9Y243), sequence (Q9Y243 whole entry): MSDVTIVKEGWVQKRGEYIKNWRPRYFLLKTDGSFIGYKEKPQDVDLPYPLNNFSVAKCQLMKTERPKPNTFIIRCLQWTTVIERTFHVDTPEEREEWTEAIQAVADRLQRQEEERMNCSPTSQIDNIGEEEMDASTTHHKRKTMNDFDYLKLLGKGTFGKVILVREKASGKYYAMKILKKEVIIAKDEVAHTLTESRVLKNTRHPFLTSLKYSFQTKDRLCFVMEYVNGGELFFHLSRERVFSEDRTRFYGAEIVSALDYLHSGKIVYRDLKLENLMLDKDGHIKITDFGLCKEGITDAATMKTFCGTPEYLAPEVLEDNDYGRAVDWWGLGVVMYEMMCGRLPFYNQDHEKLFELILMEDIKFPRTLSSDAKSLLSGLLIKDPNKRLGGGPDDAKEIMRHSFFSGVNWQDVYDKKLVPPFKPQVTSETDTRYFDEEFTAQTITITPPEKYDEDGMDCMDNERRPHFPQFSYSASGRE
Procedure: as §1, §2, §3

[26] = biological target: kinase named in conditions (Homo sapiens, UniProt O60674, V617F); conditions: JAK2 JH1 JH2 V617F, 10 μM
Procedure: as §1, §2, §3

[27] = biological target: kinase named in conditions (Homo sapiens, UniProt O43293); conditions: DAPK3 (ZIPK), 10 μM
kinase named in conditions (Homo sapiens, UniProt O43293), sequence (O43293 whole entry): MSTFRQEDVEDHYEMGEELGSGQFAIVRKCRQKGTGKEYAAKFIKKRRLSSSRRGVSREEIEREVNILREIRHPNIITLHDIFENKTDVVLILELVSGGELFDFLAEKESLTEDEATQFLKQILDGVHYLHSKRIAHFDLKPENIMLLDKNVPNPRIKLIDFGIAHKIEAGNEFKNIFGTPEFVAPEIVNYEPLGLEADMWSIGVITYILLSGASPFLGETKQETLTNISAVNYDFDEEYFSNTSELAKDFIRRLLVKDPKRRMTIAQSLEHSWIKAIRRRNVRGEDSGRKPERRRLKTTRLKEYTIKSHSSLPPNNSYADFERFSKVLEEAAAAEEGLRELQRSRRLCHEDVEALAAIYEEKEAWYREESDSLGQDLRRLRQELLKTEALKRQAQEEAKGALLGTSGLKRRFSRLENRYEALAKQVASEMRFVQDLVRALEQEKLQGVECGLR
Procedure: as §1, §2, §3

[28] = biological target: kinase named in conditions (Homo sapiens, UniProt P00533, G719S); conditions: EGFR (ErbB1) G719S, 10 μM
kinase named in conditions (Homo sapiens, UniProt P00533, G719S), sequence (P00533 25-1210 G719S): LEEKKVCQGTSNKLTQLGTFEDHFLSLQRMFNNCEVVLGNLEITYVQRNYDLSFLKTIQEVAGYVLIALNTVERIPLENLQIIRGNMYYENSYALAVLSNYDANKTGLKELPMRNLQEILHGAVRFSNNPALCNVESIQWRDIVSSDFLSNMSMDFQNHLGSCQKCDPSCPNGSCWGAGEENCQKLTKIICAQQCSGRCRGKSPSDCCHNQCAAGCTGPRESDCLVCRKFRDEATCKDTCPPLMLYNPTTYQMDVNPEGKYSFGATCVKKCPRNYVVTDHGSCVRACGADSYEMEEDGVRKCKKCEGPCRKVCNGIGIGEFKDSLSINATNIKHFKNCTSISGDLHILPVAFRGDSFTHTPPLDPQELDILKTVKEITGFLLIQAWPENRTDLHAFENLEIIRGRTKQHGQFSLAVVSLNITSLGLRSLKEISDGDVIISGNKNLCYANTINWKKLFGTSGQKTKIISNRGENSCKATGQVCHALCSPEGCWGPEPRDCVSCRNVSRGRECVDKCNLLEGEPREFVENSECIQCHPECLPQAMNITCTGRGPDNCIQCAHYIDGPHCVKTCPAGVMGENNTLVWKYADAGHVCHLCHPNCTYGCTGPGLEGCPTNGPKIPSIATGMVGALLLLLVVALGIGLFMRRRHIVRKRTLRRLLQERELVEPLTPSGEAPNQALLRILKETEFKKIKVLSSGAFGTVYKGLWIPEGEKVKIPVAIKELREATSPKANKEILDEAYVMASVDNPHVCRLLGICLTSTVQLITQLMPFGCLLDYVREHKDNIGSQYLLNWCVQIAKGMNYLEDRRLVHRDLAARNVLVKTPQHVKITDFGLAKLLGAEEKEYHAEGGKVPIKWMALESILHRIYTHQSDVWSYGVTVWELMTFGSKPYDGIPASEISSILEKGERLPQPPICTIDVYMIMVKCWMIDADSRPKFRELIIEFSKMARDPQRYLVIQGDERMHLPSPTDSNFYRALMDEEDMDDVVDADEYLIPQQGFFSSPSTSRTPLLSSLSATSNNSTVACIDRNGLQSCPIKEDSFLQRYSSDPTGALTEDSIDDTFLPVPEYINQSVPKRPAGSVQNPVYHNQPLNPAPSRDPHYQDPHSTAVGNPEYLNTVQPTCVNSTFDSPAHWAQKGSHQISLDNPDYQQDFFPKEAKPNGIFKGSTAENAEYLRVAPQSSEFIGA
Procedure: as §1, §2, §3

[29] = biological target: kinase named in conditions (Homo sapiens, UniProt P00519, F317I); conditions: ABL1 F317I, 10 μM
kinase named in conditions (Homo sapiens, UniProt P00519, F317I), sequence (P00519 whole entry F317I): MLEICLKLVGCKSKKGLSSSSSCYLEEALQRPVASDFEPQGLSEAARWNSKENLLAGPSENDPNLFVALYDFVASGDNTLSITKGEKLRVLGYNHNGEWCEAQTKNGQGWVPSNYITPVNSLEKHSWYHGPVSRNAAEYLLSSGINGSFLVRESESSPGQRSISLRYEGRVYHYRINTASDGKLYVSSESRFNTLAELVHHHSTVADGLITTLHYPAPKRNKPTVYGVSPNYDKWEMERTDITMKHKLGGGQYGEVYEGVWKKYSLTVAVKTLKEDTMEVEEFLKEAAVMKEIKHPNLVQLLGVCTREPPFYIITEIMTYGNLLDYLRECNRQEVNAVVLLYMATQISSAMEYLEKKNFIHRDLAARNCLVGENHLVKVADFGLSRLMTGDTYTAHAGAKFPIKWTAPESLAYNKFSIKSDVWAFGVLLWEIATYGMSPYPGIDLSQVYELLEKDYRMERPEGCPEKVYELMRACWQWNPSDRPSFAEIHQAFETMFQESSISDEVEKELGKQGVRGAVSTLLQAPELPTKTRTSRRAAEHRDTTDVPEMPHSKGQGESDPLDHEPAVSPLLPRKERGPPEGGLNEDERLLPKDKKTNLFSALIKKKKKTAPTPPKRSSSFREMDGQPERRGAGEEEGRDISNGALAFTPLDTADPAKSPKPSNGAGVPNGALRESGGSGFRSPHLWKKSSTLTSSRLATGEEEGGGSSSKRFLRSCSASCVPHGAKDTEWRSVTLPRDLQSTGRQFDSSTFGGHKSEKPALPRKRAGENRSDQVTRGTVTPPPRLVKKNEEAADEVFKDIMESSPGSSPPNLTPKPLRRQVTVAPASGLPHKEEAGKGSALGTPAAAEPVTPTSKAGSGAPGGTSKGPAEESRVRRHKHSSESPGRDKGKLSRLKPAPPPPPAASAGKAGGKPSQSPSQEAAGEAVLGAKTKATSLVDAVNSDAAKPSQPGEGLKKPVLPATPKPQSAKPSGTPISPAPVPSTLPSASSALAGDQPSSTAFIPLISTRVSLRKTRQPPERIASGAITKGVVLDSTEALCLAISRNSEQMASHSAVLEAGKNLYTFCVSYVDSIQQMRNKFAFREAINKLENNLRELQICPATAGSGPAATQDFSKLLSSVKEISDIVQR
Procedure: as §1, §2, §3

[30] = biological target: kinase named in conditions (Homo sapiens, UniProt P24941); conditions: CDK2/cyclin A, 10 μM
Procedure: as §1, §2, §3

[31] = biological target: kinase named in conditions (Homo sapiens, UniProt P07949, Y791F); conditions: RET Y791F, 10 μM
Procedure: as §1, §2, §3

[32] = biological target: kinase named in conditions (Homo sapiens, UniProt P25098); conditions: ADRBK1 (GRK2), 10 μM
Procedure: as §1, §2, §3

[33] = biological target: kinase named in conditions (Homo sapiens, UniProt Q04912); conditions: MST1R (RON), 10 μM
Procedure: as §1, §2, §3

FC(F)(F)c1c(Cl)ccc(-n2ccnn2)c1Cl [8l, 1-(2,4-Dichloro-3-(trifluoromethyl)phenyl)-1H-1,2,3-triazole]
inhibition at 10 µM [1]: 0% | inhibition at 10 µM [2]: -14% | inhibition at 10 µM [3]: 0% | inhibition at 10 µM [4]: -8% | inhibition at 10 µM [5]: 9% | inhibition at 10 µM [6]: -17% | inhibition at 10 µM [7]: 5% | inhibition at 10 µM [8]: 2% | inhibition at 10 µM [9]: 4% | inhibition at 10 µM [10]: 23% | inhibition at 10 µM [11]: 6% | inhibition at 10 µM [12]: 4% | inhibition at 10 µM [13]: -1% | inhibition at 10 µM [14]: 3% | inhibition at 10 µM [15]: 11% | inhibition at 10 µM [16]: 5% | inhibition at 10 µM [17]: -17% | inhibition at 10 µM [18]: -5% | inhibition at 10 µM [19]: 17% | inhibition at 10 µM [20]: 2% | inhibition at 10 µM [21]: 24% | inhibition at 10 µM [22]: 2% | inhibition at 10 µM [23]: 7% | inhibition at 10 µM [24]: 24% | inhibition at 10 µM [25]: 3% | inhibition at 10 µM [26]: -4% | inhibition at 10 µM [27]: 8% | inhibition at 10 µM [28]: -1% | inhibition at 10 µM [29]: 13% | inhibition at 10 µM [30]: 6% | inhibition at 10 µM [31]: 5% | inhibition at 10 µM [32]: 4% | inhibition at 10 µM [33]: 11%
